Test results from PMC4658274 (The Analyst, 2015).
pIC50, pKi: −log10 of the molar value.

Target: hERG potassium channel (Homo sapiens, UniProt Q12809)
Experiment: radio-ligand competitive binding assay

Chain of hERG potassium channel (Q12809 whole entry): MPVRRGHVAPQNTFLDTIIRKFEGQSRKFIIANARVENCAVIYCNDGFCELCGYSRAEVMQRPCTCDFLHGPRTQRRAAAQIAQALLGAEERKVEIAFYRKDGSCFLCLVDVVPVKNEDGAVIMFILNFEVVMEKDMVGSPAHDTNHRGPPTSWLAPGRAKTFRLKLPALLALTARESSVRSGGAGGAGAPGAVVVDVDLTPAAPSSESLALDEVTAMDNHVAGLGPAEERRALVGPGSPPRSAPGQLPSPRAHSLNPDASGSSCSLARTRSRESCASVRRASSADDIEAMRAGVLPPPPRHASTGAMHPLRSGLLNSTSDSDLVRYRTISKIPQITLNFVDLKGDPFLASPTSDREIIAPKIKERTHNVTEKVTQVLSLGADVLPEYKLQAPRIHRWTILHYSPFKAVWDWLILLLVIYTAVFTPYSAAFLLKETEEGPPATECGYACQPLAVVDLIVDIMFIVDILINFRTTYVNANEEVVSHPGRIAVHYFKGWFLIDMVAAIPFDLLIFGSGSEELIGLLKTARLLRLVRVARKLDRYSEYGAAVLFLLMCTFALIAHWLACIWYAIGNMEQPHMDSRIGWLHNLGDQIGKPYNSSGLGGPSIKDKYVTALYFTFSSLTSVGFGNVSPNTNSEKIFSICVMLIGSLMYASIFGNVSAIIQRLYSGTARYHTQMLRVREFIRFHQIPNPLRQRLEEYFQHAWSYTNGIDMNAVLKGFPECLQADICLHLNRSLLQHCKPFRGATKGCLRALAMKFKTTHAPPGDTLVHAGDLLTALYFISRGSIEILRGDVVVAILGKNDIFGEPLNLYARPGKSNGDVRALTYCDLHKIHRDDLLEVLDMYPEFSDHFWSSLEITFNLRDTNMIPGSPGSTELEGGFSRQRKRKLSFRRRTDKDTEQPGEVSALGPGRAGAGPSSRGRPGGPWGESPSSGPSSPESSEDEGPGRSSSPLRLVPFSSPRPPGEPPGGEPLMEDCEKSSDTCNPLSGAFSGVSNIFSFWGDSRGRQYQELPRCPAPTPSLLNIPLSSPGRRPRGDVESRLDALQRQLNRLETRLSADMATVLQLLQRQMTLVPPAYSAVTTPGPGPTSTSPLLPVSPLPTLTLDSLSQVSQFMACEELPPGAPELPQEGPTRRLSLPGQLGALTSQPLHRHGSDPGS

`CN1CCN(CCCCN2C(=O)CN(/N=C/c3ccc(-c4ccc(Cl)cc4)o3)C2=O)CC1` [Azimilide] showed a pIC50 of 5.72 and a pKi of 6.02.
